From US20260053811A1, “METHODS OF TREATING HYPERTENSION IN OBESE SUBJECTS” (Mineralys Therapeutics, Inc., priority 2022, published 2026)

Tested on: hypertensive subjects
Experiment: Seated automated office blood pressure (AOBP) in randomized, placebo-controlled, dose-ranging study
Format: in vivo, human
Protocol: A randomized, double-blinded, placebo-controlled, dose-ranging, multicenter study was conducted to evaluate the effect of orally administered Compound A HBr on blood pressure for the treatment of hypertension in male and female subjects ≥18 years of age.
The study consists of two parts. For enrollment into Part 1 of the study, a subject's value of plasma renin activity (PRA) must be ≤1 ng/mL/h based on morning measurement. If the value of PRA >1 ng/mL/h based on morning measurement, then subjects may be eligible to enter Part 2 of the study.
For Part 1, 163 enrolled subjects ≥18 years of age were randomized into 6 equal treatment groups (1:1:1:1:1:1) to 12.5 mg BID, 25 mg BID, 12.5 mg QD, 50 mg QD, 100 mg QD, or placebo. After a review of interim clinical data, the 2 lowest dose levels (12.5 mg QD and 12.5 mg BID) were stopped for future randomization due to a lack of consistent meaningful reduction of blood pressure, but the patients randomized to that point remained in the study through completion. Thus, after the review of interim clinical data, subjects were randomized into 4 equal treatment groups (1:1:1:1) to 25 mg BID, 50 mg QD, 100 mg QD, or placebo.
For Part 2, 36 enrolled subjects ≥18 years of age were randomized (5:1) to either 100 mg QD Compound A HBr or placebo such that the Compound A HBr treatment group consisted of approximately 30 subjects and the placebo treatment group will consist of approximately 6 subjects.
Subjects orally administered the assigned study drug (Compound A HBr or placebo) according to the assigned dosing regimen for 8 weeks beginning on Study Day 1. All subjects in Part 1 (regardless of dosing group) received BID dosing to preserve the integrity of the blind; active drug is administered as the morning dose for all QD dose groups. Subjects returned to the research facility or were seen by the clinical investigator or approved home health care professional at the end of Study Weeks 1, 2, 3, 4, 5, 6, 7, and 8 (±2 days) for protocol-defined efficacy and safety assessments and procedures, assessment of adverse events (AEs), and confirmation of compliance with study drug usage. Subjects also completed a telephone visit and blood pressure (BP) check at home approximately 3 days post last dose of study drug. Subjects attended up to 14 full clinic visits, including a pre-Screening visit, a Screening/start of Placebo Run-in visit, a second visit during Placebo Run-in, a clinic visit to initiate the ABPM procedure, a Randomization visit, 8 weekly visits during double-blind treatment, and an end-of-study visit scheduled 4 weeks after the last study treatment for final efficacy and safety assessments.
An automated oscillometric sphygmomanometer device was used to measure the subjects' systolic and diastolic blood pressure in office after approximately 5 minutes of rest in the seated position.
The primary endpoint is the change in office-measured (mean of last 2 of 5 unattended measurements using an automated oscillometric sphygmomanometer device after approximately 5 minutes of rest in the seated position) systolic blood pressure (SBP) from baseline to the end of Study Week 8.
Secondary endpoints of this study were: • (a) Change in 24-hour ambulatory blood pressure monitoring (ABPM) parameters (systolic and diastolic) from baseline to the end of Study Week 7. • (b) Change in office-measured SBP from baseline to the end of Study Weeks 1, 2, 3, 4, 5, 6, and 7. • (c) Change in office-measured diastolic blood pressure (DBP) from baseline to the end of Study Weeks 1, 2, 3, 4, 5, 6, 7, and 8. • (d) Proportion of subjects who achieve office-measured BP of ≤130/80 mm Hg by the end of Study Week 8.

[1] = Part 2, 100 mg QD, Thiazide Diuretic Use at Baseline Yes
[2] = Part 2, 100 mg QD, subgroup ACEi/ARBs No (n 1)
[3] = Part 2, 100 mg QD, subgroup ACEi/ARBs Yes
[4] = Part 2, 100 mg QD, subgroup AHTs 2
[5] = Part 2, 100 mg QD, subgroup AHTs ≥3
[6] = Part 2, 100 mg QD, subgroup Age 65-79 yr
[7] = Part 2, 100 mg QD, subgroup Age <65 yr
[8] = Part 2, 100 mg QD, subgroup Age ≥80 yr (n 1)
[9] = Part 2, 100 mg QD, subgroup BMI 25-30 kg/m^2
[10] = Part 2, 100 mg QD, subgroup BMI <25 kg/m^2
[11] = Part 2, 100 mg QD, subgroup BMI >30 kg/m^2
[12] = Part 2, 100 mg QD, subgroup PRA 1-5 ng/mL/hr
[13] = Part 2, 100 mg QD, subgroup PRA >5 ng/mL/hr
[14] = Part 2, 100 mg QD, subgroup Race Black or AA
[15] = Part 2, 100 mg QD, subgroup Race Other
[16] = Part 2, 100 mg QD, subgroup Seated SBP Tertile High
[17] = Part 2, 100 mg QD, subgroup Seated SBP Tertile Low
[18] = Part 2, 100 mg QD, subgroup Seated SBP Tertile Middle
[19] = Part 2, 100 mg QD, subgroup Sex Female
[20] = Part 2, 100 mg QD, subgroup Sex Male
[21] = pooled 50 mg QD, 100 mg QD, 12.5 mg BID and 25 mg BID cohorts (N=103)
[22] = pooled 50 mg QD, 100 mg QD, 12.5 mg BID, 25 mg BID cohorts, week 8

Compound: CC(=O)N[C@H]1CC[C@H](NC(=O)CN2CCN(c3nncc(-c4ccc(C)cc4)n3)CC2)CC1 [Compound A HBr]
- Mean Automated Office-Measured Systolic Blood Pressure at Wk 8 [1]: 131.72 mmHg
- Mean Change from Baseline at Week 8 in Automated Office-Measured Systolic Blood Pressure [1]: −10.50 mmHg
- Automated Office-Measured Diastolic Blood Pressure, Wk 8, mean [2]: 87.00 mmHg
- Change from Baseline at Week 8 in Automated Office-Measured Diastolic Blood Pressure, mean [2]: 0.00 mmHg
- Automated Office-Measured Diastolic Blood Pressure, Wk 8, mean [3]: 71.66 mmHg
- Change from Baseline at Week 8 in Automated Office-Measured Diastolic Blood Pressure, mean [3]: −5.88 mmHg
- Automated Office-Measured Diastolic Blood Pressure, Wk 8, mean [4]: 71.58 mmHg
- Change from Baseline at Week 8 in Automated Office-Measured Diastolic Blood Pressure, mean [4]: −6.21 mmHg
- Automated Office-Measured Diastolic Blood Pressure, Wk 8, mean [5]: 73.18 mmHg
- Change from Baseline at Week 8 in Automated Office-Measured Diastolic Blood Pressure, mean [5]: −4.77 mmHg
- Automated Office-Measured Diastolic Blood Pressure, Wk 8, mean [6]: 72.38 mmHg
- Change from Baseline at Week 8 in Automated Office-Measured Diastolic Blood Pressure, mean [6]: −3.83 mmHg
- Automated Office-Measured Diastolic Blood Pressure, Wk 8, mean [7]: 72.50 mmHg
- Change from Baseline at Week 8 in Automated Office-Measured Diastolic Blood Pressure, mean [7]: −10.38 mmHg
- Automated Office-Measured Diastolic Blood Pressure, Wk 8, mean [8]: 65.00 mmHg
- Change from Baseline at Week 8 in Automated Office-Measured Diastolic Blood Pressure, mean [8]: −7.00 mmHg
- Automated Office-Measured Diastolic Blood Pressure, Wk 8, mean [9]: 70.40 mmHg
- Change from Baseline at Week 8 in Automated Office-Measured Diastolic Blood Pressure, mean [9]: −6.10 mmHg
- Automated Office-Measured Diastolic Blood Pressure, Wk 8, mean [10]: 77.00 mmHg
- Change from Baseline at Week 8 in Automated Office-Measured Diastolic Blood Pressure, mean [10]: −1.25 mmHg
- Automated Office-Measured Diastolic Blood Pressure, Wk 8, mean [11]: 73.46 mmHg
- Change from Baseline at Week 8 in Automated Office-Measured Diastolic Blood Pressure, mean [11]: −5.88 mmHg
- Automated Office-Measured Diastolic Blood Pressure, Wk 8, mean [12]: 71.93 mmHg
- Change from Baseline at Week 8 in Automated Office-Measured Diastolic Blood Pressure, mean [12]: −2.14 mmHg
- Automated Office-Measured Diastolic Blood Pressure, Wk 8, mean [13]: 71.29 mmHg
- Change from Baseline at Week 8 in Automated Office-Measured Diastolic Blood Pressure, mean [13]: −11.79 mmHg
- Automated Office-Measured Diastolic Blood Pressure, Wk 8, mean [14]: 72.00 mmHg
- Change from Baseline at Week 8 in Automated Office-Measured Diastolic Blood Pressure, mean [14]: −4.67 mmHg
- Automated Office-Measured Diastolic Blood Pressure, Wk 8, mean [15]: 72.21 mmHg
- Change from Baseline at Week 8 in Automated Office-Measured Diastolic Blood Pressure, mean [15]: −5.94 mmHg
- Automated Office-Measured Diastolic Blood Pressure, Wk 8, mean [16]: 72.09 mmHg
- Change from Baseline at Week 8 in Automated Office-Measured Diastolic Blood Pressure, mean [16]: −4.14 mmHg
- Automated Office-Measured Diastolic Blood Pressure, Wk 8, mean [17]: 72.33 mmHg
- Change from Baseline at Week 8 in Automated Office-Measured Diastolic Blood Pressure, mean [17]: −6.78 mmHg
- Automated Office-Measured Diastolic Blood Pressure, Wk 8, mean [18]: 72.10 mmHg
- Change from Baseline at Week 8 in Automated Office-Measured Diastolic Blood Pressure, mean [18]: −6.40 mmHg
- Automated Office-Measured Diastolic Blood Pressure, Wk 8, mean [19]: 70.75 mmHg
- Change from Baseline at Week 8 in Automated Office-Measured Diastolic Blood Pressure, mean [19]: −6.28 mmHg
- Automated Office-Measured Diastolic Blood Pressure, Wk 8, mean [20]: 75.00 mmHg
- Change from Baseline at Week 8 in Automated Office-Measured Diastolic Blood Pressure, mean [20]: −4.50 mmHg
- Blood pressure reduction by background thiazide diuretic (across dosing cohorts): particularly effective at reducing the blood pressure of individuals who were receiving a thiazide diuretic
- Blood pressure reduction by body mass index (BMI) (across dosing cohorts): particularly effective at reducing the blood pressure of individuals with a body mass index (BMI) of greater than 30
- Subjects with change in BPsys >−15 mmHg [21]: 41%
- Subjects with change in BPsys >−25 mmHg [21]: 25%
- Subjects achieving >−23 mmHg fall in systolic blood pressure [22]: 25%
- Subjects achieving ≥15 mmHg fall in systolic blood pressure [22]: 41%
